Among the test systems are M14; OVCAR-8; HL-60; NCI-H522; HOP-92; SW-620; HCC 2998; U-251; NCI-H23; SF-295; OVCAR-5; SF-268; SK-OV-3; A549; NCI/ADR-RES; Hs-578T; MDA-N; CCRF-CEM; MCF7; T47D.
What all share (experiment): growth of human tumour cells (NCI), 48 h

SMILES strings stand for the structures.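 Where inhibition never reached the appropriate level, the endpoint shown equals the highest concentration tested. Otherwise, values were interpolated linearly from a five-concentration, 48-hour dose response in 96-well plates. Here, GI50 denotes the concentration required for 50% inhibition of growth.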 Calls of active or inactive are those of the source. Cut-off read from the data, not from the text of the source: active = GI50 up to about 1.1 µM and inactive = higher. Some results are limits rather than exact numbers.

The record followed here is ChEMBL document CHEMBL1201862, “PubChem BioAssay data set” (2004).

As to `CC(=O)NC(ON1C(=O)COc2ccccc21)C(Cl)(Cl)Cl` (stereo not given), the GI50 in the test with M14, in the test on OVCAR-8, in the test on HL-60, in the test with NCI-H522, in the test with HOP-92 and with SW-620 was > 100 µM (inactive) throughout. For the same compound, the GI50 with HCC 2998, in the test with U-251, in the test with NCI-H23, in the test with SF-295, in the test with OVCAR-5 and in the test on SF-268 was > 100 µM (inactive) each time. Moreover, the GI50 with SK-OV-3 and in the test with A549 was > 100 µM (inactive) in each case.

With `CC(C)(C)OC(=O)NNC(=O)C1Cc2ccccc2OC1=O` (stereo not given), the GI50 with M14, in the test on OVCAR-8, in the test on NCI-H522, in the test on SW-620, with HCC 2998 and in the test with U-251 was > 100 µM (inactive) each time. Besides, the GI50 with NCI/ADR-RES, in the test on NCI-H23, in the test on SF-295, in the test on OVCAR-5, with SF-268 and with SK-OV-3 was > 100 µM (inactive) in each case. In addition, the GI50 in the test with Hs-578T, in the test with MDA-N and in the test on A549 was > 100 µM (inactive) each time.

In the case of `COC(=O)c1ccc(C(=O)OC)c2nc3cc(C)ccc3nc12`, the GI50 in the test with M14, in the test with CCRF-CEM, with OVCAR-8, with HL-60, with HOP-92 and with SW-620 was > 100 µM (inactive) in each case. For the same compound, the GI50 in the test on HCC 2998, in the test with U-251, with NCI-H23, with SF-295, in the test on OVCAR-5 and in the test with SF-268 was > 100 µM (inactive) each time. The GI50 with SK-OV-3 and in the test on A549 was > 100 µM (inactive) in each case.

On to `Nc1c(C(=O)c2ccc(Cl)cc2)[nH]c(NCc2ccccc2)c1C(=S)Nc1ccccc1`, for which the GI50 in the test with M14 is 1.96 µM (inactive); with CCRF-CEM it was 2.44 µM (inactive); in the test on OVCAR-8 it was 1.77 µM (inactive); with HL-60 it was 3.93 µM (inactive); with NCI-H522 it was 1.82 µM (inactive); with HOP-92, 2.84 µM (inactive). The GI50 in the test with SW-620 was 1.88 µM (inactive); in the test with HCC 2998, 0.372 µM (active); in the test with U-251, 1.72 µM (inactive); with NCI/ADR-RES, 7.83 µM (inactive); with NCI-H23 it was 2.39 µM (inactive); in the test on SF-295, 1.83 µM (inactive). The GI50 was 3 µM (inactive) with OVCAR-5; 1.58 µM (inactive) with MCF7; 3.03 µM (inactive) with SF-268; 20.1 µM (inactive) in the test with SK-OV-3; 3.76 µM (inactive) in the test with T47D; 1.73 µM (inactive) in the test with MDA-N. Also, the GI50 in the test with A549 is 2.18 µM (inactive).

As for `S=c1oc(CCCCCCCCc2nn(CNc3ccc(Cl)cc3)c(=S)o2)nn1CNc1ccc(Cl)cc1`, the GI50 is 12 µM (inactive) with M14; > 100 µM (inactive) in the test on NCI-H522; > 100 µM (inactive) in the test with HOP-92; > 100 µM (inactive) in the test with SW-620; > 100 µM (inactive) with HCC 2998; > 100 µM (inactive) in the test on U-251. Moreover, the GI50 was > 100 µM (inactive) in the test on NCI/ADR-RES; 99.3 µM (inactive) in the test on NCI-H23; 4.92 µM (inactive) in the test with SF-295; 60.5 µM (inactive) in the test on OVCAR-5; > 100 µM (inactive) with MCF7; > 100 µM (inactive) in the test with SF-268. For the same compound, the GI50 is > 100 µM (inactive) in the test with SK-OV-3, 43.4 µM (inactive) in the test on MDA-N and > 100 µM (inactive) in the test with A549.

On to `Cc1ccc(S(=O)(=O)SCc2ccccc2)cc1`, for which the GI50 is 17.9 µM (inactive) in the test on M14; 2.33 µM (inactive) in the test on CCRF-CEM; 15.3 µM (inactive) in the test on OVCAR-8; 2.44 µM (inactive) in the test with HL-60; 7.91 µM (inactive) in the test with NCI-H522; 22.7 µM (inactive) with HOP-92. For the same compound, the GI50 was 4.31 µM (inactive) with SW-620; 24.2 µM (inactive) in the test on HCC 2998; 27 µM (inactive) in the test on U-251; 19 µM (inactive) with NCI-H23; 30.3 µM (inactive) with SF-295; 33.2 µM (inactive) in the test on OVCAR-5. Moreover, the values for the GI50 in the test with SF-268, in the test on SK-OV-3 and in the test on A549 were 34 µM (inactive), 52.2 µM (inactive) and 35.8 µM (inactive), respectively.

On to `COC(=O)C1(C(=O)OC)N=C(C)OC1/C=C/c1ccccc1` (stereo not given), for which the GI50 in the test on M14 was > 100 µM (inactive); in the test with CCRF-CEM, 75.3 µM (inactive); with OVCAR-8 it was > 100 µM (inactive); in the test on HL-60 it was > 100 µM (inactive); in the test on HOP-92, > 100 µM (inactive); in the test with SW-620, > 100 µM (inactive). Moreover, the GI50 in the test with HCC 2998, in the test on U-251, in the test on NCI/ADR-RES, in the test with NCI-H23, in the test with SF-295 and with OVCAR-5 was > 100 µM (inactive) in each case. The GI50 in the test with MCF7, in the test on SK-OV-3, with T47D, in the test with MDA-N and in the test with A549 was > 100 µM (inactive) throughout.

As for `Cc1cccc2[n+]1[C@H]1[C@H]([C@@H]3O[C@H]1c1ccccc13)[S+]([O-])N2` (stereo not given in full), the GI50 with CCRF-CEM is 34.8 µM (inactive); with OVCAR-8, 9.98 µM (inactive); in the test on HL-60, 24.4 µM (inactive); with NCI-H522, 34.8 µM (inactive); in the test on HOP-92, 11.9 µM (inactive); with SW-620 it was > 100 µM (inactive). Also, the GI50 in the test with HCC 2998 was 72.8 µM (inactive); in the test with U-251, 43.8 µM (inactive); with SF-295, 59.8 µM (inactive); in the test on OVCAR-5 it was 80.7 µM (inactive); in the test on SF-268 it was 41.1 µM (inactive); in the test on SK-OV-3, > 100 µM (inactive). In addition, the GI50 with A549 was 63.2 µM (inactive).

`O=C(/C=C1/NC(=O)CS1)Nc1ccccc1`: the GI50 with M14, with CCRF-CEM, in the test with OVCAR-8, with HL-60, in the test on NCI-H522 and in the test with HOP-92 was > 100 µM (inactive) throughout. In addition, the GI50 in the test with SW-620, in the test with HCC 2998, with U-251, in the test with NCI-H23, in the test on SF-295 and in the test with OVCAR-5 was > 100 µM (inactive) throughout. Further, the GI50 in the test on SF-268, with SK-OV-3 and in the test on A549 was > 100 µM (inactive) each time.

For the compound `CSCCCN(CCCSC)CCCSC`, the GI50 in the test with M14 is > 100 µM (inactive); with CCRF-CEM, 35.5 µM (inactive); with OVCAR-8, > 100 µM (inactive); in the test on HL-60 it was 13.5 µM (inactive); with NCI-H522 it was 66.7 µM (inactive); in the test with SW-620, > 100 µM (inactive). Besides, the GI50 in the test with HCC 2998, with U-251, with NCI/ADR-RES, in the test with NCI-H23, with SF-295 and in the test with OVCAR-5 was > 100 µM (inactive) in each case. Also, the GI50 with MCF7, with SF-268, in the test with SK-OV-3, in the test on T47D, with MDA-N and with A549 was > 100 µM (inactive) throughout.

Regarding `CCOc1ccc(/N=C/c2cccc3cccnc23)cc1`, the GI50 in the test on M14 was 44.7 µM (inactive); with CCRF-CEM, 62.5 µM (inactive); with OVCAR-8 it was > 100 µM (inactive); in the test with HL-60, 25.6 µM (inactive); in the test with HOP-92, > 100 µM (inactive); in the test on SW-620 it was 50.5 µM (inactive). Moreover, the GI50 in the test on HCC 2998, with U-251, with NCI-H23, in the test on SF-295, in the test on OVCAR-5 and in the test on SF-268 was > 100 µM (inactive) throughout. Moreover, the GI50 with SK-OV-3 and with A549 was > 100 µM (inactive) in each case.

On to `Nc1ccc(C(=O)N/C(=C\c2cccc([N+](=O)[O-])c2)c2nc3cc(Cl)ccc3[nH]2)cc1`, for which the GI50 was 74.3 µM (inactive) in the test with M14; > 100 µM (inactive) in the test with CCRF-CEM; > 100 µM (inactive) in the test with OVCAR-8; > 100 µM (inactive) with NCI-H522; 24.4 µM (inactive) in the test on HOP-92; > 100 µM (inactive) in the test on SW-620. In addition, the GI50 in the test on HCC 2998 was > 100 µM (inactive); with U-251 it was > 100 µM (inactive); with NCI-H23, > 100 µM (inactive); in the test with SF-295, > 100 µM (inactive); in the test with OVCAR-5, > 100 µM (inactive); in the test with SF-268, 97.7 µM (inactive). Also, the GI50 was > 100 µM (inactive) in the test with SK-OV-3 and 77.3 µM (inactive) in the test with A549.

For the compound `COC(=O)c1sc2ncc3c(c2c1N)CC(C)CC3` (stereo not given), the GI50 in the test with M14, with CCRF-CEM, with NCI-H522, with HOP-92, in the test with SW-620 and in the test on HCC 2998 was > 100 µM (inactive) in each case. Also, the GI50 in the test on U-251, with NCI/ADR-RES, in the test on NCI-H23, in the test with SF-295, with OVCAR-5 and with MCF7 was > 100 µM (inactive) in each case. Besides, the GI50 in the test on SF-268, in the test with SK-OV-3, with T47D, in the test on MDA-N and in the test with A549 was > 100 µM (inactive) in each case.
